Data reported in patent US10544106B2, “Certain chemical entities, compositions, and methods” (NeuPharma, Inc., priority 2016, dated 2020).

Target: BTK (Homo sapiens (Human), UniProt Q06187)
Test: Z'-LYTE kinase inhibition assay against BTK
Assay type: biochemical
Conditions: for IC50: series of concentrations, GraphPad Prism 5
Procedure: Inhibitory activities of compounds against BTK, EGFR T790M, EGFR L858R, and EGFR L858R/T790M were measured using Z′-LYTE® Method from Life Technologies as briefly described in the following.
Test Compounds are screened in 1% DMSO (final) in the well. For 10 point titrations, 3-fold serial dilutions are conducted from the starting concentration. All ATP Solutions are diluted to a 4× working concentration in Kinase Buffer (50 mM HEPES pH 7.5, 0.01% BRIJ-35, 10 mM MgCl2, 1 mM EGTA). Peptide/Kinase Mixtures are diluted to a 2× working concentration in the appropriate Kinase Buffers as described below. • (i) Peptide/Kinase Mixtures for measurement of EGFR (ErbB1) L858R: • The 2×EGFR (ErbB1) L858R/Tyr 04 mixture is prepared in 50 mM HEPES pH 7.5, 0.01% BRIJ-35, 10 mM MgCl2, 4 mM MnCl2. 1 mM EGTA, 2 mM DTT. The final 10 μL Kinase Reaction consists of 0.2-1.68 ng EGFR (ErbB1) L858R and 2 μM Tyr 04 in 50 mM HEPES pH 7.5, 0.01% BRIJ-35, 10 mM MgCl2, 2 mM MnCl2, 1 mM EGTA, 1 mM DTT. After the 1 hour Kinase Reaction incubation, 5 μL of a 1:64 dilution of Development Reagent B is added. • (ii) Peptide/Kinase Mixtures for measurement of EGFR (ErbB1) T790M: The 2×EGFR (ErbB1) T790M/Tyr 04 mixture is prepared in 50 mM HEPES pH 6.5, 0.01% BRIJ-35, 10 mM MgCl2, 1 mM EGTA, 0.02% NaN3. The final 10 μL Kinase Reaction consists of 3.9-30.2 ng EGFR (ErbB1) T790M and 2 μM Tyr 04 in 50 mM HEPES pH 7.0, 0.01% BRIJ-35, 10 mM MgCl2, 1 mM EGTA, 0.01% NaN3. After the 1 hour Kinase Reaction incubation, 5 μL of a 1:64 dilution of Development Reagent B is added. • (iii) Peptide/Kinase Mixtures for measurement of EGFR (ErbB1) L858R/T790M: The 2×EGFR (ErbB1) T790M L858R/Tyr 04 mixture is prepared in 50 mM HEPES pH 6.5, 0.01% BRIJ-35, 10 mM MgCl2, 1 mM EGTA, 0.02% NaN3. The final 10 μL Kinase Reaction consists of 0.38-4.22 ng EGFR (ErbB1) T790M L858R and 2 μM Tyr 04 in 50 mM HEPES pH 7.0, 0.01% BRIJ-35, 10 mM MgCl2, 1 mM EGTA, 0.01% NaN3. After the 1 hour Kinase Reaction incubation, 5 μL of a 1:64 dilution of Development Reagent B is added. • (iv) Peptide/Kinase Mixtures for measurement of BTK: The 2×BTK/Tyr 01 mixture is prepared in 50 mM HEPES pH 7.5, 0.010/BRIJ-35, 10 mM MgCl2, 1 mM EGTA. The final 10 μL Kinase Reaction consists of 1.04-10.4 ng BTK and 2 μM Tyr 01 in 50 mM HEPES pH 7.5, 0.01% BRIJ-35, 10 mM MgCl2, 1 mM EGTA. After the 1 hour Kinase Reaction incubation, 5 μL of a 1:256 dilution of Development Reagent B is added.
Reaction starts by 30-second shaking of mixture consisting of 2.5 μL 4× test compound, 5 μL 2× kinase reaction mixture and 2.5 μL 4×ATP Solution on Bar-coded Corning, low volume NBS, black 384-well plate (Corning Cat. #3676). Then the mixture is incubated for 60-minute at room temperature for the kinase reaction, followed by addition of 5 μL of a 1:1024 dilution of development reagent A and 30-second plate shake. The mixture is then incubated for another 60-minute at room temperature for development reaction. Finally fluorescence is read by plate reader.
The Z′-LYTE assay was carried out with ATP concentration at Km. The scale utilized in Tables 2-6 is as follows: ++ more than 50% inhibition and + less than 50% inhibition.
To determine IC50 of a compound against a kinase, a series of concentrations of the compound were tested for the inhibition. IC50 was calculated by plotting the concentration of compound vs the percentage of inhibition in treated wells using GraphPad Prism 5. […] The scale utilized in Table 7 is as follows: ++ less than 100 nM and + greater than 100 nM.

[1] = compound at 100 nM, ATP concentration at Km

BTK, sequence (Q06187 whole entry): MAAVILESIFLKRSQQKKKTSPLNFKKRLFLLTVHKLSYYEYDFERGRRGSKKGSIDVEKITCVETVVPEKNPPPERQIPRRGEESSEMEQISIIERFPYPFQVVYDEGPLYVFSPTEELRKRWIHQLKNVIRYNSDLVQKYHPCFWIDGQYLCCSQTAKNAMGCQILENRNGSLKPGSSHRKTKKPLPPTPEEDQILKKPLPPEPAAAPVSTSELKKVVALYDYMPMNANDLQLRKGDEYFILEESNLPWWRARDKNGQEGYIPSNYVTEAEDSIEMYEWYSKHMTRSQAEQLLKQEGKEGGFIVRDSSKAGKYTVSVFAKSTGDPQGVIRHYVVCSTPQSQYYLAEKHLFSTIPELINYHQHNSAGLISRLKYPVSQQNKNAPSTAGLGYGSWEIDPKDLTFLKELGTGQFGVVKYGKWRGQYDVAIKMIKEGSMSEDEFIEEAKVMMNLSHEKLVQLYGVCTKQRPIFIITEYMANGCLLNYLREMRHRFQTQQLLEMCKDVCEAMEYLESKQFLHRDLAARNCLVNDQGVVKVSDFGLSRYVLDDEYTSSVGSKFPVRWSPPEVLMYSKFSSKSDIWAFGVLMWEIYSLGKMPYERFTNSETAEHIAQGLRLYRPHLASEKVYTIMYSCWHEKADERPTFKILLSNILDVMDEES

Molecule | IC50 | inhibition at 0.1 µM [1] | % Inhibition against BTK [1]
4-(5-Amino-1-(1-(but-2-ynoyl)pyrrolidin-3-yl)imidazo[1,5-c]pyrimidin-3-yl)-N-(pyridin-2-yl)-3-(trifluoromethyl)benzamide [C248] | < 100 nM | – | –
C=CC(=O)Nc1cccc(-c2cc(-c3ccccc3)cc3cnc(N)nc23)c1 [C005, N-(3-(2-amino-6-phenylquinazolin-8-yl)phenyl)acrylamide] | < 100 nM | > 50% | –
C=CC(=O)Nc1cccc(-c2cc(-c3ccncc3)cc3cncnc23)c1 [C006, N-(3-(6-(pyridin-4-yl)quinazolin-8-yl)phenyl)acrylamide] | < 100 nM | > 50% | –
C=CC(=O)Nc1cccc(-c2cc(-c3cccnc3)cc3cncnc23)c1 [C007, N-(3-(6-(pyridin-3-yl)quinazolin-8-yl)phenyl)acrylamide] | < 100 nM | > 50% | –
C=CC(=O)N1CCCC(n2c(-c3ccccc3)nc3cncnc32)C1 (stereo not shown) [C012, 1-(3-(8-phenyl-9H-purin-9-yl)piperidin-1-yl)prop-2-en-1-one] | – | < 50% | –
C=CC(=O)N1CCC(n2c(-c3ccccc3)nc3cnc(N)nc32)C1 (stereo not shown) [C015, 1-(3-(2-amino-8-phenyl-9H-purin-9-yl)pyrrolidin-1-yl)prop-2-en-1-one] | – | < 50% | –
C=CC(=O)Nc1cccc(-c2cc(-c3cccc(Nc4ccccc4)c3)cc3cncnc23)c1 [C017, N-(3-(6-(3-(phenylamino)phenyl)quinazolin-8-yl)phenyl)acrylamide] | – | > 50% | –
C=CC(=O)Nc1cccc(-c2cc(-c3ccnc(C(F)(F)F)c3)cc3cncnc23)c1 [C018, N-(3-(6-(2-(trifluoromethyl)pyridin-4-yl)quinazolin-8-yl)phenyl)acrylamide] | – | < 50% | –
C=CC(=O)N1CCCC(c2cc(-c3ccccc3)cc3cncnc23)C1 (stereo not shown) [C020, 1-(3-(6-phenylquinazolin-8-yl)piperidin-1-yl)prop-2-en-1-one] | – | < 50% | –
C=CC(=O)N1CCC(n2c(-c3ccccc3)nc3cncnc32)C1 (stereo not shown) [C021, 1-(3-(8-phenyl-9H-purin-9-yl)pyrrolidin-1-yl)prop-2-en-1-one] | – | < 50% | –
C=CC(=O)Nc1cccc(-c2cc(-c3cccc(Nc4ccccc4)c3)cc3c(N)ncnc23)c1 [C022, N-(3-(4-amino-6-(3-(phenylamino)phenyl)quinazolin-8-yl)phenyl)acrylamide] | – | < 50% | –
C=CC(=O)Nc1cccc(-c2cc(-c3ccc(Oc4ccccc4)cc3)cc3cncnc23)c1 [C023, N-(3-(6-(4-phenoxyphenyl)quinazolin-8-yl)phenyl)acrylamide] | < 100 nM | > 50% | –
C=CC(=O)Nc1cccc(-n2c(-c3ccccc3)nc3cnc(N)nc32)c1 [C024, N-(3-(2-amino-8-phenyl-9H-purin-9-yl)phenyl)acrylamide] | – | < 50% | –
C=CC(=O)Nc1cccc(-c2cc(-c3ccc(Nc4ccccc4)cc3)cc3cncnc23)c1 [C025, N-(3-(6-(4-(phenylamino)phenyl)quinazolin-8-yl)phenyl)acrylamide] | – | < 50% | –
C=CC(=O)N1CCC(n2c(-c3ccccc3Cl)nc3cnc(N)nc32)C1 (stereo not shown) [C026, 1-(3-(2-amino-8-(2-chlorophenyl)-9H-purin-9-yl)pyrrolidin-1-yl)prop-2-en-1-one] | – | < 50% | –
C=CC(=O)N1CCCC(n2c(-c3ccccc3Cl)nc3cnc(N)nc32)C1 (stereo not shown) [C027, 1-(3-(2-amino-8-(2-chlorophenyl)-9H-purin-9-yl)piperidin-1-yl)prop-2-en-1-one] | – | < 50% | –
C=CC(=O)N1CCCC(c2cc(-c3ccc(Oc4ccccc4)cc3)cc3cnc(N)nc23)C1 (stereo not shown) [C028, 1-(3-(2-amino-6-(4-phenoxyphenyl)quinazolin-8-yl)piperidin-1-yl)prop-2-en-1-one] | < 100 nM | > 50% | –

Continued, values first:

IC50 | inhibition at 0.1 µM [1] | % Inhibition against BTK [1] | Molecule
< 100 nM | > 50% | – | C=CC(=O)N1CCC(c2nc(-c3ccc(Oc4ccccn4)cc3)n3c(N)nccc23)C1 (racemic) [C224, (R/S)-1-(3-(5-amino-3-(4-(pyridin-2-yloxy)phenyl)imidazo[1,5-c]pyrimidin-1-yl)pyrrolidin-1-yl)prop-2-en-1-one]
< 100 nM | – | ++ (more than 50% inhibition) | C=CC(=O)N1CCC(c2nc(-c3ccc(Oc4ccccn4)cc3)n3c(N)nccc23)C1 (racemic) [C225, (S/R)-1-(3-(5-amino-3-(4-(pyridin-2-yloxy)phenyl)imidazo[1,5-c]pyrimidin-1-yl)pyrrolidin-1-yl)prop-2-en-1-one]
– | < 50% | – | C=CC(=O)Nc1cccc(-c2cc(-c3ccccc3)cc3cnc(-c4ccccc4)nc23)c1 [C001, N-(3-(2,6-diphenylquinazolin-8-yl)phenyl)acrylamide]
– | < 50% | – | C=CC(=O)Nc1cccc(-c2cc(-c3ccccc3Cl)cc3cnc(-c4ccccc4)nc23)c1 [C002, N-(3-(6-(2-chlorophenyl)-2-phenylquinazolin-8yl)phenyl)acrylamide]
< 100 nM | > 50% | – | C=CC(=O)Nc1cccc(-c2cc(-c3ccccc3)cc3cncnc23)c1 [C004, N-(3-(6-phenylquinazolin-8-yl)phenyl)acrylamide]
– | < 50% | – | C=CC(=O)N1CCC=C(c2cc(-c3ccc(C(=O)Nc4ccccn4)cc3)cc3cncnc23)C1 [C009, 4-(8-(1-acryloyl-1,2,5,6-tetrahydropyridin-3-yl)quinazolin-6-yl)-N-(pyridin-2-yl)benzamide]
– | > 50% | – | C=CC(=O)Nc1cccc(-c2cc(-c3ccc(C)nc3)cc3cncnc23)c1 [C010, N-(3-(6-(6-methylpyridin-3-yl)quinazolin-8-yl)phenyl)acrylamide]
– | < 50% | – | C=CC(=O)Nc1cccc(-c2cc(-c3cccc(Nc4cccc(C(F)(F)F)c4)c3)cc3cncnc23)c1 [C011, N-(3-(6-(3-((3-(trifluoromethyl)phenyl)amino)phenyl)quinazolin-8-yl)phenyl)acrylamide]
– | < 50% | – | C=CC(=O)Nc1cccc(-n2c(-c3ccccc3)nc3cncnc32)c1 [C014, N-(3-(8-phenyl-9H-purin-9-yl)phenyl)acrylamide]
– | < 50% | – | C=CC(=O)Nc1cccc(-c2cc(-c3ccccc3)cc3c(N)ncnc23)c1 [C016, N-(3-(4-amino-6-phenylquinazolin-8-yl)phenyl)acrylamide]
– | < 50% | – | C=CC(=O)Nc1cccc(-c2cc(-c3ccc(Nc4cccc(C(F)(F)F)c4)cc3)cc3cncnc23)c1 [C019, N-(3-(6-(4-((3-(trifluoromethyl)phenyl)amino)phenyl)quinazolin-8-yl)phenyl)acrylamide]
– | < 50% | – | C=CC(=O)N1CCCC(c2cc(-c3cccc(Nc4cccc(C(F)(F)F)c4)c3)cc3cncnc23)C1 (stereo not shown) [C029, 1-(3-(6-(3-((3-(trifluoromethyl)phenyl)amino)phenyl)quinazolin-8-yl)piperidin-1-yl)prop-2-en-1-one]
